{
  "source": "patent US20010016590A1",
  "about": "“Use of hydroxymatairesinol for prevention of cancers, non-cancer, hormone dependent diseases and cardiovascular diseases by hydroxymatairesinol, and a pharmaceutical preparation, food additive and food product comprising hydroxymatairesinol” (priority 1999, published 2001)",
  "key": {"aromatase": {"molecular_target": "T1, aromatase (Homo sapiens, UniProt P11511)", "T1 construct": "800 μl cell suspension (1 million cells); endogenous in cells; host or cells: JEG-3 human choriocarcinoma cells", "T1 sequence (P11511 1-503)": "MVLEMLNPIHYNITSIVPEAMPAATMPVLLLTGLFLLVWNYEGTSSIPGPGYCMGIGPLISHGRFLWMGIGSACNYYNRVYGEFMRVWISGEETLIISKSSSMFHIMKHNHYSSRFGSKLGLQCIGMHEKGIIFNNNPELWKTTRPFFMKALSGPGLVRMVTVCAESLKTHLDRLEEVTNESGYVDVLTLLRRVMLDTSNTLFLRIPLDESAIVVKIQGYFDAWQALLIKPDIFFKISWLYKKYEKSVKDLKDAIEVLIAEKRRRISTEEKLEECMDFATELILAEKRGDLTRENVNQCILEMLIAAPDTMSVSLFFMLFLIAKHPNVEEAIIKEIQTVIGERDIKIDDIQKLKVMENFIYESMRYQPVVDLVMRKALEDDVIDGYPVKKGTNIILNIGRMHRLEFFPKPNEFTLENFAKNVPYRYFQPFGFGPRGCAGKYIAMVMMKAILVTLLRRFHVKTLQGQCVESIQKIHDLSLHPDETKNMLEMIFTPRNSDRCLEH", "assay": "Aromatase inhibiting capacity in JEG-3 cells", "type": "cell-based", "settings": "FIG. 1, enterolactone within 1.0 to 10.0 μM", "protocol": "The effects of HMR and structurally related lignans (enterolactone, enterodiol and 7-hydroxyenterolactone) were studied on formation of ^3H-17β-estradiol from ^3H-andostenedione in JEG-3 cells, human choriocarcinoma cell line. […] Cells were maintained in DMEM containing 10% fetal calf serum (FCS). The incubation mixture contained 50 μl ^3H-androst-4-ene, 3,17-dione (0.5 nM), 50 μl unlabelled androstenedione (0.5 nM), 100 μl test compounds (10 mM) and 800 μl cell suspension (1 million cells). After the incubation for 4 h, unlabelled carriers (androstenedione, testosterone, 17β-estradiol and estrone) were added. The steroids were extracted twice with 3.0 ml dichloromethane. […] The column system consisted of a guard column followed by a C18 150×3.9 mm ID analytical column (Technopak 10 C18 HPLC Technology; Wellington House, Cheshire, UK). The mobile phase was acetonitrile /water (35/65) and the flow rate was 1.2 ml/min. For in-line detection of the radioactive metabolites, the eluent of the HPCL column was continuously mixed with liquid scintillant and then monitored with in-line radioactivity detector."}, "[1]": {"test_system": "antiestrogen-sensitive DMBA-induced breast cancer", "settings": "supplementation of a high-fat diet; flaxseed flour 5% or 10%; Serraino and Thompson; Thompson et al.; cited from earlier work"}, "uterine weight": {"test_system": "uterine weight", "settings": "feeding during pregnancy and lactation to rats; not evident at later stages; Tou et al. 1998; cited from earlier work"}, "[2]": {"test_system": "chemically induced aberrant crypts in rat colon", "settings": "Serraino and Thompson 1992, Jenab and Thompson 1996; cited from earlier work"}, "[3]": {"test_system": "hypoandrogenic Noble strain male rats", "assay": "Antiestrogenic activity in hypoandrogenic (neonatally estrogenized) adult male rats", "type": "in vivo, rat", "settings": "hypoandrogenic animals", "protocol": "(§1) Estrogenic (anfiandrogenic) and antiestrogenic effects of HMR were studied in intact and hypoandrogenic Noble strain male rats (age 6-9 month), correspondingly. The chronic hypoandrogenic state with both structural and functional changes in the male reproductive tract was induced by neonatal estrogenization (diethylstilbestrol, 10.0 μg/kg body weight in rape oil s.c. on postnatal days 1-5). These changes are known to be partly reversible by aromatase inhibitor treatment consisting daily dose of MPV-2213 ad 10-30 mg/kg body weight (Streng et al. unpublished observations).\n(§2) Twelve of both intact and hypoandrogenic animals were cavaged in daily dosage of HMR 50 mg/kg body weight in rape oil. Another twelve animals from both animal models were cavaged with rape oil only as a placebo treatment. After four-week treatment the animals were sacrificed. The weights of testis and accessory sex glands (ventral prostate, seminal vesicles and coagulating gland) were measured. Serum and testis testosterone and pituitary and serum luteinizing hormone (LH) levels were measured by immunoassays (Haavisto et al. 1993)."}, "MCF-7 cells": {"test_system": "MCF-7 cells", "assay": "Estrogenic and antiestrogenic activity in MCF-7 cell proliferation assay", "type": "cell-based, human", "settings": "FIG. 2", "protocol": "The MCF-7 cell line (human breast cancer cells) stock cultures were grown in phenol red free RPMI medium supplemented with 5 % FCS, 100 U/ml penicillin and 100 μg/ml streptomycin, 10 μg/ml insulin and 1 nM 17μ-estradiol in T-75 cell culture bottles. The medium was replaced with fresh ones three times per week. The stock cultures were harvested by trypsinization and suspended in 10 ml phenol red free versene solution and centrifuged for 5 min 800 rpm. The cell pellet was carefully resuspended into RPMI medium supplemented with 5% dextran charcoal stripped FCS (dcFCS) and seeded on 6 well plates 50 000 cells/ 3.0 ml medium/ well. On the second day of culture the medium was changed and test compounds were added. To test the estrogenicity of the lignan compounds, they were diluted in ethanol and added to cell cultures in final concentration of […]. In each proliferation assay 1.0 nM 1 7β-estradiol solution in ethanol was used as a positive control for estrogenic response. Equal amounts of ethanol were added to control wells. To test the antiestrogenicity both 17β-estradiol and lignan solutions were added to cell cultures. The cells were cultured for 5 to 7 days in the presence of test compounds, and the medium was changed every second day. Cell proliferation was quantified by counting the released nuclei with Coulter counter."}, "[4]": {"test_system": "DMBA-induced mammary gland tumors", "assay": "Antitumor activity in rat DMBA-induced mammary cancer model", "type": "in vivo", "protocol": "Antitumor activity of HMR in rat mammary cancer was studied as described earlier ([…] et al. 1986). Fifty-day-old female Sprague-Dawley rats were given 12.0 mg DMBA (dimethylbentz[a]anthracene) by […]. After approximately 6 weeks palpable tumors could be detected, whereafter the width (w) and the length (1) of the tumors were measured once a week to determine the tumor volumes according to a formula V=(πw^21)/12. The rats were also weighed once a week. The rats were allocated in 3 different groups so that the total number of tumors in the beginning of the experiment was similar in each group: (1) Control group 8 animals, (2) HMR 3.0 mg/kg 7 animals, and (3) HMR 15.0 mg/kg 7 animals, one of which had to be killed before the end of the experiment. HMR was given per os starting 9 weeks after the DMBA-induction, i.e. 3 weeks after palpable tumors appeared, and was given daily for 7.5 weeks. At the end of the experiment the tumors were classified in groups according to their growth pattern: 1. Growing tumors (PD=progressive disease); 2. Non-growing, stabilized tumors (SD=stabilized disease, no change in tumor volume or regression less than 75%; 3. Regressing tumors (PR=partial response, regression of tumor volume more than 75%); 4. Disappeared tumors (CR=complete response, no palpable tumor)."}, "[5]": {"test_system": "uterine growth of immature rats", "assay": "Immature rat uterotropic test", "type": "in vivo", "settings": "7 days treatment, FIG. 3", "protocol": "The estrogenicity HMR was evaluated by the uterotropic assay in immature rats which was performed as described earlier (Jordan et al. 1977), with the exception of treatment time which was 7 days instead of 3 days in the reference study. The treatment time was longer because of the expected weak estrogenicity of the test compound. The treatment of immature rats with an aromatase inhibitor (MPV-2213ad), which prevents biosynthesis of estradiol, was used as a methodological control for non-estrogen-stimulated uterus."}, "[6]": {"test_system": "intact Noble strain male rats", "assay": "Estrogenic (antiandrogenic) activity in intact adult male rats", "type": "in vivo, rat", "protocol": "as §1, §2"}, "[7]": {"settings": "intact animals, 50 mg/kg HMR, four week exposure, mean"}},
  "data": [
    {"compound": "O=C1OCC(Cc2cccc(O)c2)C1Cc1cccc(O)c1", "note": "(stereo not shown) [enterolactone, 2,3-bis-(3’-hydroxybenzyl)-butyrolactone]", "values": [
      {"measurement": "Inhibition of 3H-17β-estradiol formation from 3H-androstenedione (aromatization)", "setting": "aromatase", "result": "dose-dependent inhibition"}
    ]},
    {"compound": "secoisolariciresinol-diglycoside [SDG]", "values": [
      {"measurement": "Development of DMBA-induced breast cancer", "setting": "[1]", "result": "prevented the development"},
      {"measurement": "Uterine weight (estrogen-like activity)", "setting": "uterine weight", "result": "increased the uterine weight at weaning"},
      {"measurement": "Formation of chemically induced aberrant crypts", "setting": "[2]", "result": "inhibited"}
    ]},
    {"compound": "O=C1OC[C@H](Cc2cccc(O)c2)[C@H]1[C@@H](O)c1cccc(O)c1", "note": "[7-hydroxyenterolactone]", "values": [
      {"measurement": "Inhibition of 3H-17β-estradiol formation from 3H-androstenedione (aromatization)", "setting": "aromatase", "result": "no inhibitory effects"}
    ]},
    {"compound": "COc1cc(CC2C(=O)OCC2C(O)c2ccc(O)c(OC)c2)ccc1O", "note": "(stereo not shown) [HMR, hydroxymatairesinol]", "values": [
      {"measurement": "Pituitary LH", "setting": "[3]; 50 mg/kg HMR, four week exposure, mean", "result": 7.53, "unit": "µg/pit"},
      {"measurement": "Changes in testosterone or LH concentrations vs placebo", "setting": "[3]; 4-week treatment", "result": "no significant changes"},
      {"measurement": "Changes in the weights of accessory sex glands and testis vs placebo", "setting": "[3]; 4-week treatment", "result": "no significant changes"},
      {"measurement": "Estrogenic or antiestrogenic activity in MCF-7 cell proliferation", "setting": "MCF-7 cells", "result": "very weak, not statistically significant"},
      {"measurement": "Dose-dependency of antitumor action", "setting": "[4]; 3.0 vs 15.0 mg/kg", "result": "no clear dose-dependency"},
      {"measurement": "Antitumor effect (growing PD versus SD, PR, CR tumors)", "setting": "[4]; HMR 3.0 and 15.0 mg/kg per os daily for 7.5 weeks, FIG. 4", "result": "statistically very significant"},
      {"measurement": "Inhibition of 3H-17β-estradiol formation from 3H-androstenedione (aromatization)", "setting": "aromatase", "result": "no inhibitory effects"},
      {"measurement": "Estrogenic effect on the uterine weight gain", "setting": "[5]", "result": "no significant estrogenic effect"},
      {"measurement": "Changes in the weights of accessory sex glands and testis vs placebo", "setting": "[6]; control (intact) animals, 4-week treatment", "result": "no significant changes"},
      {"measurement": "Pituitary LH", "setting": "[6]; [7]", "result": 6.84, "unit": "µg/pit"},
      {"measurement": "Serum LH", "setting": "[6]; [7]", "result": 1.09, "unit": "ng/mL"},
      {"measurement": "Serum testosterone", "setting": "[6]; [7]", "result": 2.77, "unit": "ng/mL"},
      {"measurement": "Changes in testosterone or LH concentrations vs placebo", "setting": "[6]; intact animals, 4-week treatment", "result": "no significant changes"}
    ]},
    {"compound": "OCC(Cc1cccc(O)c1)C(CO)Cc1cccc(O)c1", "note": "(stereo not shown) [enterodiol, 2,3-bis-(3’-hydroxybenzyl)-butane-1,4-diol]", "values": [
      {"measurement": "Inhibition of 3H-17β-estradiol formation from 3H-androstenedione (aromatization)", "setting": "aromatase", "result": "noninhibitory"}
    ]}
  ]
}
